What all share (experiment): MIC, standard broth micro-dilution assay
Format in all cases: cell-based
(In general: Broth dilution looks for growth in wells or tubes with falling amounts of substance.)

Experiment [1] deals with Entercoccus faecalis 2041. The procedure:
(§1) The formula I compounds have in vitro and in vivo activity against Gram-positive pathogenic bacteria. The MIC's were determined using a standard broth micro-dilution assay.

Experiment [2] relates to Entercoccus gallinarum 245. The procedure: as §1
For the next experiment, the system named is Entercoccus faecalis 276. The procedure: as §1

This passage reports MIC results from patent US5843889A, “Glycopeptide antibiotic derivatives” (Eli Lilly and Company, priority 1997, dated 1998).

Converted amounts (≈) assume the structure as drawn. Some results are limits rather than exact numbers.

The term MIC denotes the smallest concentration in the dilution series that meets the test's criterion for growth inhibition. The low end stands for a more susceptible organism, the high end for a less susceptible organism. On to `CNC(CC(C)C)C(=O)NC1C(=O)NC(CC(N)=O)C(=O)NC2C(=O)NC3C(=O)NC(C(=O)NC(C(=O)O)c4cc(O)cc(O)c4-c4cc3ccc4O)C(OC3CC(C)(N)C(O)C(C)O3)c3ccc(c(Cl)c3)Oc3cc2cc(c3OC2OC(CO)C(O)C(O)C2OC2CC(C)(NCCc3ccc(Cc4ccccc4)cc3)C(O)C(C)O2)Oc2ccc(cc2Cl)C1O` (stereo not drawn) [Compound 35, 4 -benzylphenethyl], for which the MIC (in experiment [1]; in experiment [2]; in the experiment with Entercoccus faecalis 276) was at most 0.06 µg/mL throughout.

In the case of `CNC(CC(C)C)C(=O)NC1C(=O)NC(CC(N)=O)C(=O)NC2C(=O)NC3C(=O)NC(C(=O)NC(C(=O)O)c4cc(O)cc(O)c4-c4cc3ccc4O)C(OC3CC(C)(N)C(O)C(C)O3)c3ccc(c(Cl)c3)Oc3cc2cc(c3OC2OC(CO)C(O)C(O)C2OC2CC(C)(NCc3ccc(-c4ccc(Cl)cc4)cc3)C(O)C(C)O2)Oc2ccc(cc2Cl)C1O` (stereo not drawn) [Compound 229, 4-[4-chlorophenyl]benzyl-A82846B], the results for the MIC (in experiment [1]; in experiment [2]; with Entercoccus faecalis 276) were at most 0.06 µg/mL, 2 µg/mL (≈ 1.12 µM) and 0.25 µg/mL (≈ 0.139 µM), respectively.

`CNC(CC(C)C)C(=O)NC1C(=O)NC(CC(N)=O)C(=O)NC2C(=O)NC3C(=O)NC(C(=O)NC(C(=O)O)c4cc(O)cc(O)c4-c4cc3ccc4O)C(OC3CC(C)(N)C(O)C(C)O3)c3ccc(c(Cl)c3)Oc3cc2cc(c3OC2OC(CO)C(O)C(O)C2OC2CC(C)(NCc3ccc(-c4ccc([N+](=O)[O-])cc4)cc3)C(O)C(C)O2)Oc2ccc(cc2Cl)C1O` (stereo not drawn) [Compound 64, 4-[4-nitrophenyl]benzyl]: the MIC in experiment [1] was at most 0.06 µg/mL; in experiment [2], 2 µg/mL (≈ 1.11 µM); with Entercoccus faecalis 276, 0.5 µg/mL (≈ 0.277 µM).

As to `CNC(CC(C)C)C(=O)NC1C(=O)NC(CC(N)=O)C(=O)NC2C(=O)NC3C(=O)NC(C(=O)NC(C(=O)O)c4cc(O)cc(O)c4-c4cc3ccc4O)C(OC3CC(C)(N)C(O)C(C)O3)c3ccc(c(Cl)c3)Oc3cc2cc(c3OC2OC(CO)C(O)C(O)C2OC2CC(C)(NCc3cccc(OCC4CCCCC4)c3)C(O)C(C)O2)Oc2ccc(cc2Cl)C1O` (stereo not drawn) [Compound 123, 3-[cyclohexylmethoxy]benzyl], the MIC in experiment [1] was at most 0.06 µg/mL; in experiment [2] it was 1 µg/mL (≈ 0.557 µM); against Entercoccus faecalis 276, 0.25 µg/mL (≈ 0.139 µM).

Regarding `CNC(CC(C)C)C(=O)NC1C(=O)NC(CC(N)=O)C(=O)NC2C(=O)NC3C(=O)NC(C(=O)NC(C(=O)O)c4cc(O)cc(O)c4-c4cc3ccc4O)C(OC3CC(C)(N)C(O)C(C)O3)c3ccc(c(Cl)c3)Oc3cc2cc(c3OC2OC(CO)C(O)C(O)C2OC2CC(C)(NCC3=CCC4CC3C4(C)C)C(O)C(C)O2)Oc2ccc(cc2Cl)C1O` (stereo not drawn) [Compound 170], the results for the MIC (in experiment [1]; in experiment [2]; in the experiment on Entercoccus faecalis 276) were at most 0.06 µg/mL, 4 µg/mL (≈ 2.32 µM) and 0.5 µg/mL (≈ 0.29 µM), respectively.

Take `CNC(CC(C)C)C(=O)NC1C(=O)NC(CC(N)=O)C(=O)NC2C(=O)NC3C(=O)NC(C(=O)NC(C(=O)O)c4cc(O)cc(O)c4-c4cc3ccc4O)C(OC3CC(C)(N)C(O)C(C)O3)c3ccc(c(Cl)c3)Oc3cc2cc(c3OC2OC(CO)C(O)C(O)C2OC2CC(C)(NCc3ccc(OC(=O)c4ccccc4)cc3)C(O)C(C)O2)Oc2ccc(cc2Cl)C1O` (stereo not drawn) [Compound 150, 4-benzoyloxybenzyl]: the minimal inhibitory concentration (MIC) in experiment [1] is at most 0.06 µg/mL; in experiment [2] it was 2 µg/mL (≈ 1.11 µM); with Entercoccus faecalis 276, 1 µg/mL (≈ 0.555 µM).

In the case of `CNC(CC(C)C)C(=O)NC1C(=O)NC(CC(N)=O)C(=O)NC2C(=O)NC3C(=O)NC(C(=O)NC(C(=O)O)c4cc(O)cc(O)c4-c4cc3ccc4O)C(OC3CC(C)(N)C(O)C(C)O3)c3ccc(c(Cl)c3)Oc3cc2cc(c3OC2OC(CO)C(O)C(O)C2OC2CC(C)(NCc3ccc(Nc4ccccc4)cc3)C(O)C(C)O2)Oc2ccc(cc2Cl)C1O` (stereo not drawn) [Compound 160, 4-anilinobenzyl], the values for the minimum inhibitory concentration (MIC) (in experiment [1]; in experiment [2]; against Entercoccus faecalis 276) were at most 0.06 µg/mL, 8 µg/mL (≈ 4.51 µM) and 2 µg/mL (≈ 1.13 µM), respectively.

For `CNC(CC(C)C)C(=O)NC1C(=O)NC(CC(N)=O)C(=O)NC2C(=O)NC3C(=O)NC(C(=O)NC(C(=O)O)c4cc(O)cc(O)c4-c4cc3ccc4O)C(OC3CC(C)(N)C(O)C(C)O3)c3ccc(c(Cl)c3)Oc3cc2cc(c3OC2OC(CO)C(O)C(O)C2OC2CC(C)(NCc3ccc(OC(F)F)cc3)C(O)C(C)O2)Oc2ccc(cc2Cl)C1O` (stereo not drawn) [Compound 72, 4-difluormethoxybenzyl], the MIC in experiment [1] was at most 0.06 µg/mL; in experiment [2], 4 µg/mL (≈ 2.29 µM); in the experiment on Entercoccus faecalis 276, at most 0.06 µg/mL.

Regarding `CNC(CC(C)C)C(=O)NC1C(=O)NC(CC(N)=O)C(=O)NC2C(=O)NC3C(=O)NC(C(=O)NC(C(=O)O)c4cc(O)cc(O)c4-c4cc3ccc4O)C(OC3CC(C)(N)C(O)C(C)O3)c3ccc(c(Cl)c3)Oc3cc2cc(c3OC2OC(CO)C(O)C(O)C2OC2CC(C)(NCc3cc(C)cc(C)c3)C(O)C(C)O2)Oc2ccc(cc2Cl)C1O` (stereo not drawn) [Compound 89, 3,5-dimethylbenzyl], the MIC (in experiment [1]; in experiment [2]; against Entercoccus faecalis 276) was at most 0.06 µg/mL in each case.

`CN[C@@H](CC(C)C)C(=O)N[C@H]1C(=O)N[C@H](CC(N)=O)C(=O)N[C@H]2C(=O)N[C@H]3C(=O)N[C@@H](C(=O)NC(C(=O)O)c4cc(O)cc(O)c4-c4cc3ccc4O)[C@@H](O[C@H]3C[C@](C)(N)[C@H](O)[C@@H](C)O3)c3ccc(cc3)Oc3cc2cc(c3O[C@H]2O[C@@H](CO)[C@@H](O)[C@H](O)[C@@H]2O[C@H]2C[C@](C)(N)[C@H](O)[C@@H](C)O2)Oc2ccc(cc2)[C@@H]1O` (stereo partly drawn) [Compound A82846C, A82846C, reference compound]: the minimal inhibitory concentration (MIC) (in experiment [1]; in experiment [2]; in the experiment with Entercoccus faecalis 276) was 0.5 µg/mL (≈ 0.328 µM) throughout.

Take `CNC(CC(C)C)C(=O)NC1C(=O)NC(CC(N)=O)C(=O)NC2C(=O)NC3C(=O)NC(C(=O)NC(C(=O)O)c4cc(O)cc(O)c4-c4cc3ccc4O)C(OC3CC(C)(N)C(O)C(C)O3)c3ccc(c(Cl)c3)Oc3cc2cc(c3OC2OC(CO)C(O)C(O)C2OC2CC(C)(NCc3sccc3-c3cccs3)C(O)C(C)O2)Oc2ccc(cc2Cl)C1O` (stereo not drawn) [Compound 238, 3-[2-thienyl]-2-thienylmethyl]: the MIC (in experiment [1]; in experiment [2]; against Entercoccus faecalis 276) was at most 0.06 µg/mL each time.

For `CNC(CC(C)C)C(=O)NC1C(=O)NC(CC(N)=O)C(=O)NC2C(=O)NC3C(=O)NC(C(=O)NC(C(=O)O)c4cc(O)cc(O)c4-c4cc3ccc4O)C(OC3CC(C)(N)C(O)C(C)O3)c3ccc(c(Cl)c3)Oc3cc2cc(c3OC2OC(CO)C(O)C(O)C2OC2CC(C)(NCc3cccc(Oc4ccc(C(F)(F)F)cc4)c3)C(O)C(C)O2)Oc2ccc(cc2Cl)C1O` (stereo not drawn) [Compound 132, 3-[4-trifluoromethylphenoxy]benzyl], the MIC in experiment [1] came to 1 µg/mL (≈ 0.543 µM); in experiment [2], 2 µg/mL (≈ 1.09 µM); against Entercoccus faecalis 276, 1 µg/mL (≈ 0.543 µM).

On to `CNC(CC(C)C)C(=O)NC1C(=O)NC(CC(N)=O)C(=O)NC2C(=O)NC3C(=O)NC(C(=O)NC(C(=O)O)c4cc(O)cc(O)c4-c4cc3ccc4O)C(OC3CC(C)(N)C(O)C(C)O3)c3ccc(c(Cl)c3)Oc3cc2cc(c3OC2OC(CO)C(O)C(O)C2OC2CC(C)(NCc3ccc(Oc4ccc(Cl)cc4)cc3)C(O)C(C)O2)Oc2ccc(cc2Cl)C1O` (stereo not drawn) [Compound 240, 4-[4-chlorophenoxy]benzyl], for which the MIC in experiment [1] was at most 0.06 µg/mL; in experiment [2], 2 µg/mL (≈ 1.11 µM); against Entercoccus faecalis 276, 0.5 µg/mL (≈ 0.276 µM).

As to `CNC(CC(C)C)C(=O)NC1C(=O)NC(CC(N)=O)C(=O)NC2C(=O)NC3C(=O)NC(C(=O)NC(C(=O)O)c4cc(O)cc(O)c4-c4cc3ccc4O)C(OC3CC(C)(N)C(O)C(C)O3)c3ccc(c(Cl)c3)Oc3cc2cc(c3OC2OC(CO)C(O)C(O)C2OC2CC(C)(NCC3CCC(C4CCCCC4)CC3)C(O)C(C)O2)Oc2ccc(cc2Cl)C1O` (stereo not drawn) [Compound 164, 4-[cyclohexyl]cyclohexylmethyl], the figures for the MIC (in experiment [1]; in experiment [2]; against Entercoccus faecalis 276) were 1 µg/mL (≈ 0.565 µM), 2 µg/mL (≈ 1.13 µM) and 1 µg/mL (≈ 0.565 µM), respectively.

As for `CNC(CC(C)C)C(=O)NC1C(=O)NC(CC(N)=O)C(=O)NC2C(=O)NC3C(=O)NC(C(=O)NC(C(=O)O)c4cc(O)cc(O)c4-c4cc3ccc4O)C(OC3CC(C)(N)C(O)C(C)O3)c3ccc(c(Cl)c3)Oc3cc2cc(c3OC2OC(CO)C(O)C(O)C2OC2CC(C)(NCc3cccc(Oc4ccc(Cl)cc4)c3)C(O)C(C)O2)Oc2ccc(cc2Cl)C1O` (stereo not drawn) [Compound 86], the MIC in experiment [1] was at most 0.06 µg/mL; in experiment [2], 1 µg/mL (≈ 0.553 µM); in the experiment on Entercoccus faecalis 276 it was at most 0.06 µg/mL.

On to `CNC(CC(C)C)C(=O)NC1C(=O)NC(CC(N)=O)C(=O)NC2C(=O)NC3C(=O)NC(C(=O)NC(C(=O)O)c4cc(O)cc(O)c4-c4cc3ccc4O)C(OC3CC(C)(N)C(O)C(C)O3)c3ccc(c(Cl)c3)Oc3cc2cc(c3OC2OC(CO)C(O)C(O)C2OC2CC(C)(NCc3ccc(OS(=O)(=O)c4c(C)c(C)c(C)c(C)c4C)cc3)C(O)C(C)O2)Oc2ccc(cc2Cl)C1O` (stereo not drawn) [Compound 173, 4-[[2,3,4,5,6-pentamethyl]phenylsulfonyloxy]benzyl], for which the MIC came out at 0.5 µg/mL (≈ 0.262 µM) in experiment [1], 4 µg/mL (≈ 2.1 µM) in experiment [2] and 2 µg/mL (≈ 1.05 µM) against Entercoccus faecalis 276.

For the compound `CNC(CC(C)C)C(=O)NC1C(=O)NC(CC(N)=O)C(=O)NC2C(=O)NC3C(=O)NC(C(=O)NC(C(=O)O)c4cc(O)cc(O)c4-c4cc3ccc4O)C(OC3CC(C)(N)C(O)C(C)O3)c3ccc(c(Cl)c3)Oc3cc2cc(c3OC2OC(CO)C(O)C(O)C2OC2CC(C)(NCc3ccc(N(C)c4ccccc4)cc3)C(O)C(C)O2)Oc2ccc(cc2Cl)C1O` (stereo not drawn) [Compound 178, 4-[N-methylanilino]benzyl], the results for the MIC (in experiment [1]; in experiment [2]; against Entercoccus faecalis 276) were at most 0.06 µg/mL, 2 µg/mL (≈ 1.12 µM) and 0.5 µg/mL (≈ 0.28 µM), respectively.

On to `CNC(CC(C)C)C(=O)NC1C(=O)NC(CC(N)=O)C(=O)NC2C(=O)NC3C(=O)NC(C(=O)NC(C(=O)O)c4cc(O)cc(O)c4-c4cc3ccc4O)C(OC3CC(C)(N)C(O)C(C)O3)c3ccc(c(Cl)c3)Oc3cc2cc(c3OC2OC(CO)C(O)C(O)C2OC2CC(C)(NCc3ccc(-c4ccc(C)cc4)cc3C)C(O)C(C)O2)Oc2ccc(cc2Cl)C1O` (stereo not drawn) [Compound 222, 4-[4-methylphenyl]-2-methylbenzyl], for which the values for the MIC (in experiment [1]; in experiment [2]; against Entercoccus faecalis 276) were at most 0.06 µg/mL, 1 µg/mL (≈ 0.56 µM) and at most 0.06 µg/mL, respectively.
